Results: US9050353B2, “Use of icariin and epimedium flavonoids containing icariin to treat diseases associated with myelin sheath lesion” (Xuanwu Hospital of Capital Medical University, priority 2010, dated 2015)

Columns and labels:
[1] = test system: inflammatory cell infiltration in spinal cord tissues of EAE mice model; assay: Inflammatory cell infiltration in spinal cord, HE staining, EAE mice; type: in vivo; details: positive control drug, dose not given, scale 0-4
Experimental: (§1) Preparation of mice model and administration: experimental autoimmune encephalomyelitis (EAE) mice model is an important tool for studying various human demyelinating diseases of nervous system. In the present experiment, the preparation of EAE mice model was performed by immunizing female C57BL/6J mice with myelin sheath oligodendroglial cell surface glycoprotein MOG35-55. That is, the mice were subcutaneously injected at dorsal part of spinal column with 0.2 mL of MOG35-55 antigen elixir, and 0.2 ml of bordetella pertussis solution was intraperitoneally injected at the time of immunization injection and 48 h thereafter, respectively. Icariin was intragastrically administered after the last injection of bordetella pertussis solution, for consecutive 3 weeks.
Experimental objective: the pathological changes of spinal cord in EAE model, especially inflammatory cell infiltration situations was assayed by hematoxylin-eosin (HE) staining test, and the intervention effects of […] on these pathological changes were observed.
Experimental method: the mice were anesthetized with 10% chloral hydrate on the 28th day of experiment, fixed by perfusion of 4% paraformaldehyde, spinal cord tissues were taken for making paraffin sections, section thickness […]. Stained with HE, observed under microscope, and scored according to the following standard: 0 score, absence of cell infiltration; 1 score, spinal meninge cell infiltration; 2 score, 1 to 4 small ranges of cell infiltration around vessels; 3 score, 5 or more small ranges of cell infiltration around vessels, or one or more accumulatively substantial large range of cell infiltration; 4 score, a large number of cell infiltration ranges accumulatively existing in 20% or more of white matter regions.

IL-6 = assay: Serum IL-6 content by ELISA, EAE mice; type: in vivo; details: positive control drug, dose not given
Experimental: as §1
Experimental objective: interleukin-1 (IL-1) and IL-6 are important inflammatory cytokines, and have promoting effects on inflammatory reactions. This experiment used enzyme linked immunosorbent assay (ELISA) to measure contents of IL-1 and IL-6 in serums of EAE mice model, and the effects of icariin on these contents were observed.
Experimental method: mice were anesthetized with pentobarbital sodium, blood sample was taken from abdominal aorta, stood at room temperature for 2 h, centrifuged at 3000 rpm for 20 min, and supernatant was taken, stored at −80° C. for use. The operation was performed strictly according to the steps of specification of ELISA kit. Optical density was measured with ELIASA at 450 nm. The corresponding contents of IL-1 and IL-6 were calculated with the measured OD values on standard curves.

[2] = test system: experimental autoimmune encephalomyelitis (EAE) rat model; assay: Nervous function damage score in EAE rat model; type: in vivo, Lewis rats; details: EAE rats, peak of attack; positive control drug, dose not given; scale 0-6
Experimental: (§2) Preparation of rat model and administration: experimental autoimmune encephalomyelitis (EAE) model is an important tool for studying various human demyelinating diseases of nervous system. In the example, the preparation of EAE rat model was performed by multipoint immunizing female Lewis rats subcutaneously at tail root with a homogenate of spinal cord and cerebral gray matter of Guinea pig as well as complete Freund's adjuvant after emulsification. They were intragastrically administered with Epimedium flavanoids for 3 weeks.
Nervous function test method: the ethological changes of rats were observed by two experimenters using blind method every day. Nervous function damage scoring standard: 0 score, absence of symptom; 1 score, decrease of tail tension, visible evident slight gait awkward; 2 score, double hind limbs weak, walk difficult; 3 score, double hind limbs paralysis; 4 score, double hind limbs paralysis and fore limbs weak; 5 score, four limbs paralysis; 6 score, near death or died.

IL-1β = IL-1β of spinal cord lumbar intumescentia by immunohistochemical method, EAE rats; type: in vivo; details: positive control drug, dose not given
Experimental: as §2
Experimental objective: interleukin 1β (IL-1β) is an important inflammatory cytokines, and has promoting effects on inflammatory reactions. This experiment used immunohistochemical method to measure the content of IL-1β in spinal cord lumbar intumescentia of EAE model group rat, and observed the effects of Epimedium flavanoids on the content.
Experimental method: rats were anesthetized with 10% chloral hydrate, fixed by perfusion of 4% paraformaldehyde, spinal cord tissue was taken for making frozen section. Incubated with IL-1β primary antibody, added with corresponding secondary antibody, third antibody, DAB developed, observed under microscope. Pictures were analyzed by Image Pro plus 5.0 software.

[3] = test system: Superoxide dismutase (SOD); assay: SOD activity of cerebral cortex, biochemical kit, EAE rats; type: in vivo; details: positive control drug, dose not given
Experimental: as §2
Experimental objective: the lipid peroxidation between oxygen free radicals and unsaturated fatty acids of cell membranes and organelle membranes results in the damage, degradation, denaturation and dysfunction of membrane phospholipids. Malondialdehyde (MDA) is a metabolic product of lipid peroxidation, and the increase of MDA indicates the enhancement of lipid peroxidation, which may lead to damage of nerve cells and myelin sheath. Superoxide dismutase (SOD) can scavenge superoxide anions and is an important antioxidase in vivo. In this experiment, SOD activity and MDA content of brain tissues in EAE rat model were measured by biochemistry method, and the effects of Epimedium flavanoids on changes thereof were observed. […]

CNPase = assay: Cerebral cortex CNPase content by Western blot, EAE rats; type: in vivo; details: positive control drug, dose not given
Experimental: as §2
Experimental objective: myelin sheath is formed with prominences of oligodendroglial cells. […] In this experiment, CNPase content of cerebral cortex in EAE rat model was measured by Western blot method, CNPase content of spinal cord lumbar intumescentia was measured by immunohistochemical method; and the effects of Epimedium flavanoids on these contents were observed.
Experimental method: rats were anesthetized and sacrificed, cerebral cortex was taken, total protein was extracted by ice cleavage for making Western blot sample, added with CNPase primary antibody and incubated, added with corresponding secondary antibody, ECL colorated, Kodak film exposed. Pictures were analyzed by Image J software and standardized with β-actin (as internal reference).

[4] = test system: Nerve growth factors (NGF); assay: NGF of spinal cord lumbar intumescentia by immunohistochemical method, EAE rats; type: in vivo; details: positive control drug, dose not given
Experimental: as §2
Experimental objective: neurotrophic factors are important substances for constituting nerve regeneration microenvironment. Nerve growth factors (NGF) are important neurotrophic factors, can promote the regeneration and plerosis of nerve cells and myelin sheath. In this experiment, NGF content of spinal cord lumbar intumescentia in EAE rat model was measured by immunohistochemical method, and the effects of Epimedium flavanoids on the content was observed.
Experimental method: the rats were anesthetized with 10% chloral hydrate, fixed by perfusion of 4% paraformaldehyde, spinal cord tissues were taken for frozen section. Incubated with NGF primary antibody, added with corresponding secondary antibody and third antibody, DAB colorated, observed under microscope, and pictures were analyzed using Image Pro plus5.0 software.

CC(=O)OCC(=O)[C@@]1(O)CC[C@H]2[C@@H]3CCC4=CC(=O)C=C[C@]4(C)[C@H]3C(=O)C[C@@]21C [prednisone acetate]
Inflammatory cell infiltration (HE staining score) [1]: 1.05 ± 0.13
IL-6 content (IL-6): 0.121 ± 0.010 pg/mL
Nervous function damage score [2]: 0.83 ± 0.48
IL-1β Accumulative optical density (IL-1β): 115.5 ± 8.6 ×10^3
IL-1β Positive cell number (IL-1β): 672 ± 48
SOD activity [3]: 134.5 ± 5.1 U/mg protein
CNPase/actin Integration grey level (CNPase): 1.33 ± 0.06
NGF positive cell Accumulative optical density [4]: 11.25 ± 1.67 ×10^5
